Values joined by “and” are separate entries in the source; they are usually repeats but may differ in a detail not shown here. Equal values may be shown once.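 Where inhibition never reached the appropriate level, the endpoint shown equals the highest concentration tested. Otherwise, values were interpolated linearly from a five-concentration, 48-hour dose response in 96-well plates. The concentration for 50% growth inhibition is given as GI50. TGI: concentration producing complete growth inhibition.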
Assays:
Test in all cases: inhibition of tumour cell growth, NCI panel, 48 h
A498 renal = test system: A498 renal
COLO 205 colon = test system: COLO 205 colon
HCT-116 colon = test system: HCT-116 colon
HCT-15 colon = test system: HCT-15 colon
HS 578T breast = test system: HS 578T breast
LOX IMVI melanoma = test system: LOX IMVI melanoma
NCI-H460 lung = test system: NCI-H460 lung
SK-MEL-2 melanoma = test system: SK-MEL-2 melanoma
SK-OV-3 ovarian = test system: SK-OV-3 ovarian
UACC-62 melanoma = test system: UACC-62 melanoma

| Compound | GI50 (A498 renal) [µM] | TGI (A498 renal) [µM] | GI50 (COLO 205 colon) [µM] | TGI (COLO 205 colon) [µM] | GI50 (HCT-116 colon) [µM] | TGI (HCT-116 colon) | GI50 (HCT-15 colon) [µM] | TGI (HCT-15 colon) [µM] | GI50 (HS 578T breast) [µM] | TGI (HS 578T breast) [µM] | GI50 (LOX IMVI melanoma) | TGI (LOX IMVI melanoma) | GI50 (NCI-H460 lung) [µM] | TGI (NCI-H460 lung) [µM] | GI50 (SK-MEL-2 melanoma) [µM] | TGI (SK-MEL-2 melanoma) [µM] | GI50 (SK-OV-3 ovarian) [µM] | TGI (SK-OV-3 ovarian) [µM] | GI50 (UACC-62 melanoma) [µM] | TGI (UACC-62 melanoma) [µM] |
| --- | --- | --- | --- | --- | --- | --- | --- | --- | --- | --- | --- | --- | --- | --- | --- | --- | --- | --- | --- | --- |
| COc1ccc(Sc2[nH]c(C(C)=O)c3ccccc23)cc1 | 0.265 | 0.848 | 0.174 | 0.398 | 12 | 24.3 µM | 11.5 | 31 | 10.9 | 32.6 | 11.8 µM | 24.4 µM | 7.41 | 20.6 | 13 | 31.2 | 1.79 | 10.5 | 10.3 | 22 |
| C[N+](C)(C)CC1CCCc2ccccc2C1=O (stereo not given) | – | 27.6 | – | 42.9 | 4.27 | 3.27 µM and 8.46 µM | 2.75 | 8.43 | – | 85.8 | 1.93 µM and 2.23 µM | 4.78 µM and 5.93 µM | – | 49.4 | – | 27.2 | – | 34.5 | – | 26.5 |
| CCOC(=O)c1ccc(NC(=O)Oc2ccc3c(C)cc(=O)oc3c2)cc1 | – | > 100 | – | > 100 | – | 82.9 µM | – | > 100 | – | 84.1 | – | > 100 µM | – | > 100 | – | 79 | – | 94.4 | – | > 100 |
| CC(=O)N(C(C)=O)c1ncc(-n2nc(-c3ccccc3)cc2-c2ccccc2)c(-c2ccccc2)n1 | – | > 10 | – | > 10 | – | > 10 µM | – | > 10 | – | > 10 | – | > 10 µM | – | > 10 | – | > 10 | – | > 10 | – | > 10 |
| CC(=O)OC1COC(Oc2c(C)c3c4c(c2O)[C@@H](C)CC[C@@H]4[C@@H](C)C[C@H]3C=C(C)C)C(O)C1OC(C)=O (stereo not given in full) | 23.5 | 45.7 | 15.5 | 57.4 | 10.8 | 23.4 µM | 5.76 | 21.2 | 46.8 | > 100 | 12 µM | 25.7 µM | 8.36 | > 100 | 17.9 | 42.1 | 20.8 | 37.1 | 15.1 | 28.9 |
| Cc1cc(Cl)cc(OCCn2cc(F)cn2)c1-c1nc(N)nc2c1CN(C(=O)NCC(C)(F)F)C2 | 0.261 | > 100 | 0.0395 | 1.19 | 0.0548 | > 100 µM | 0.386 | > 100 | – | > 100 | 0.0852 µM | 0.552 µM | 0.0414 | > 100 | 0.508 | > 100 | 0.0492 | > 100 | 0.0779 | > 100 |
| COc1ccc(OC)c2c1[nH]c(=O)c1c3ccccc3cn21 | 1.77 | 3.2 | 1.2 | 2.79 | 0.673 | 2.01 µM | 0.693 | 2.42 | 2.18 | 5.06 | 1.4 µM | 2.88 µM | 1.1 | 2.73 | 2 | 4.01 | 1.47 | 2.97 | 1.55 | 2.92 |
| C/C=C(\C)C(=O)O[C@H]1C=CC(=O)O[C@H]1CCC(=O)[C@H](C)O | 24.1 | 56.1 | 6.07 | 22.6 | 2.87 | 11.2 µM | 11.6 | 27.1 | 16.2 | 39 | 11.8 µM | 27.4 µM | 19.2 | 43.2 | 19.1 | 47.3 | 36.5 | > 100 | 14.1 | 27.7 |
| NC(=O)/C=C/C(=O)c1c(Cl)cccc1Cl | 1.44 | 2.74 | 0.191 | 0.355 | 0.476 | – | – | 2.3 | 2.2 | 5.15 | 0.793 µM | 2.16 µM | 1.82 | 3.49 | 1.83 | 4.01 | 2.6 | 6.38 | 1.51 | 2.84 |
